The NIST ThermoML archive (doi:10.1016/j.fluid.2013.06.044)
Numbers after ± are expanded uncertainties.

Columns and labels:
[1] = refractive index (Na D-line) (dimensionless); settings: 298.15 K; 101.33 kPa; Liquid; Standard Abbe refractometry
[2] = Liquid, Closed cell (Static) method

refractive index [1] | vapor or sublimation pressure ([2]; 336.67 K) [kPa] | vapor or sublimation pressure ([2]; 350.33 K) [kPa] | vapor or sublimation pressure ([2]; 350.35 K) [kPa] | vapor or sublimation pressure ([2]; 350.41 K) [kPa] | vapor or sublimation pressure ([2]; 350.36 K) [kPa] | vapor or sublimation pressure ([2]; 350.4 K) [kPa] | SMILES
1.43127 ± 0.00031 | 232.9 ± 1 | 340.4 ± 1.4 | 340.3 ± 0.9 | 340.4 ± 0.9 |  |  | CSC [2-thiapropane]
1.3589 ± 0.00036 |  |  |  |  | 196 ± 1 |  | COC(C)=O [methyl ethanoate]
1.35959 ± 0.00037 |  |  |  |  |  | 96.5 ± 0.9 | CCO [ethanol]
 | 1576.5 ± 6.2 |  |  |  |  |  | COC [dimethyl ether]
